Patent US20150147309A1, “ALLOSTERIC CHAPERONES AND USES THEREOF” (Fondazione Telethon, priority 2012, published 2015)

Key:
[1] = target: T1, rh-alpha-Gal A in Fabry disease cell lines (Homo sapiens, UniProt P06280); test: Correction by rh-alpha-Gal A in Fabry disease cell lines with chaperone; format: cell-based; conditions: three Fabry disease cell lines
T1 construct: purchased Genzyme Co, Cambridge, Mass., USA
T1 sequence (P06280 32-429): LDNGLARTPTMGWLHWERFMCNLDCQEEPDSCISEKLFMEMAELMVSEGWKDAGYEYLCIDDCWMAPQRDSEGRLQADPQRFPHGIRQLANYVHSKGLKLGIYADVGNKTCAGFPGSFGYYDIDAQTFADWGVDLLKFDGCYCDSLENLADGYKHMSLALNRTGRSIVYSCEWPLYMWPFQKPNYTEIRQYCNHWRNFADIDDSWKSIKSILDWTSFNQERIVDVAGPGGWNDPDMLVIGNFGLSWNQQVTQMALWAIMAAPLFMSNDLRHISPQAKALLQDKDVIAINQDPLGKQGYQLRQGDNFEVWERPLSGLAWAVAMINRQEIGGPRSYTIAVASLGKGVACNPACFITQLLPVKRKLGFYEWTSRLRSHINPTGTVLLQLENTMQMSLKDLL
Description: Fibroblasts from PD and Fabry disease patients were derived from skin biopsies after obtaining the informed consent of patients. Normal age-matched control fibroblasts were available in the laboratory of the Department of Pediatrics, Federico II University of Naples. All cell lines were grown at 37° C. with 5% CO2 in Dulbecco's modified Eagle's medium (Invitrogen, Grand Island, N.Y.) and 10% fetal bovine serum (Sigma-Aldrich, St Louis, Mo.), supplemented with 100 U/ml penicillin and […] streptomycin.

rhGAA [2] = target: T2, rhGAA (Homo sapiens, UniProt P10253); test: Effect of compounds on rhGAA stability at neutral pH (residual α-glucosidase activity); format: biochemical; conditions: pH 7.0, 37° C., 0.1-10 mM, up to 48 hrs
T2 construct: purchased Genzyme Co, Cambridge, Mass., USA
Description: (§1) The standard activity assay of rhGAA was performed in 200 μl by using 5 μg of enzyme at 37° C. in 100 mM sodium acetate pH 4.0 and 20 mM 4NP-Glc. The reaction was started by adding the enzyme; after suitable incubation time (1-2 min) the reaction was blocked by adding 800 μL of 1 M sodium carbonate pH 10.2. Absorbance was measured at 420 nm at room temperature, the extinction coefficient to calculate enzymatic units was 17.2 mM^−1 cm^−1. One enzymatic unit is defined as the amount of enzyme catalyzing the conversion of 1 μmol substrate into product in 1 min, under the indicated conditions.
(§2) The effect of different pHs on the rhGAA stability was measured by preparing reaction mixtures containing 0.75 mg mL^−1 of enzyme in the presence of 50 mM citrate/phosphate (pH 3.0-7.0) at a certain pH. After incubations at 37° C., aliquots were withdrawn at the times indicated and the residual α-glucosidase activity was measured with the standard assay. To test the effect on the pH stability of rhGAA of chemical chaperons and of the other molecules, experiments were performed as described above by adding to the reaction mixtures the amounts of the different compounds indicated in the text.

rhGAA [3] = target: T2, rhGAA; test: Thermal stability scans of rhGAA (SYPRO Orange); format: binding; conditions: pH 7.4; for Tm of rhGAA in the presence of chaperone: NAC 10 mM, DNJ 0.1 mM
Description: Thermal stability scans of rhGAA were performed as described in [Flanagan et al. 2009]. Briefly, 2.5 μg of enzyme were incubated in the absence and in the presence of NAC and DNJ, 10 mM and 0.1 mM, respectively, SYPRO Orange dye, and sodium phosphate 25 mM buffer, 150 mM NaCl, pH 7.4 or sodium acetate 25 mM buffer, 150 mM NaCl, pH 5.2. Thermal stability scans were performed at 1° C./min in the range 25-95° C. in a Real Time LightCycler (Bio-Rad). SYPRO Orange fluorescence was normalized to maximum fluorescence value within each scan to obtain relative fluorescence. Melting temperatures were calculated according to (Niesen et al. 2007).

[4] = Effect of pH on rhGAA stability; format: physicochemical
Description: as §1, §2

rhGAA [5] = target: T2, rhGAA; test: Effect on rhGAA enzyme activity (standard activity assay); format: biochemical; conditions: three concentrations (FIG. 4)
Description: as §1

rhGAA in PD fibroblasts = target: T3, rhGAA in PD fibroblasts (Homo sapiens, UniProt P10253); test: Correction of GAA activity by rhGAA in PD fibroblasts with chaperone (synergy); format: cell-based; conditions: patient 3 (FIG. 7)
T3 construct: purchased Genzyme Co, Cambridge, Mass., USA
Description: To study the rhGAA uptake and correction of GAA activity in PD fibroblasts, the cells were incubated with […] rhGAA for 24 hours, in the absence or in the presence of 10 mM NAC. Untreated cells or were used for comparison. After the incubation the cells were harvested by trypsinization and disrupted by 5 cycles of freezing and thawing.
GAA activity was assayed by using the fluorogenic substrate 4-methylumbelliferyl-alpha-D-glucopyranoside (Sigma-Aldrich) according to a published procedure [Porto et al, 2009]. Briefly, 25 micrograms of protein were incubated with the fluorogenic substrate (2 mM) in 0.2 M acetate buffer, pH 4.0, for 60 minutes in incubation mixtures of 100 μl. The reaction was stopped by adding 700 μl of glycine-carbonate buffer, pH 10.7. Fluorescence was read at 365 nm (excitation) and 450 nm (emission) on a Turner Biosystems Modulus fluorometer. Protein concentration in cell homogenates was measured by the Bradford assay (Biorad, Hercules, Calif.).
To study GAA immunoreactive material, fibroblast extracts were subjected to western blot analysis. The cells were harvested, washed in phosphate-buffered saline, resuspended in water, and disrupted by five cycles of freeze-thawing. Equal amounts (20 μg protein) of fibroblast extracts were subjected to sodium dodecyl sulfate polyacrylamide gel electrophoresis and proteins were transferred to PVD membrane (Millipore, Billerica, Mass.). An anti-human GAA antiserum was used as primary antibody to detect GAA polypeptides; to detect β-actin, a monoclonal mouse antibody was used Immunoreactive proteins were detected by chemiluminescence (ECL, Amersham, Freiburg, Germany)
To study the distribution of AlexaFluor546 labeleld GAA, PD fibroblasts grown on coverslips were fixed using methanol, permeabilized using 0.1% saponin and locked with 0.01% saponin, 1% fetal bovine serum diluted in phosphate-buffered saline for 1 hour. The cells were incubated with the primary antibodies, with secondary antibodies in blocking solution and then mounted with vectashield mounting medium (Vector Laboratories, Burlingame, Calif.). Samples were examined with a Zeiss LSM 5 10 laser scanning confocal microscope. Authors used Argon/2 (458, 477, 488, and 514 nanometers) and HeNe1 (543 nanometers) excitation lasers, which were switched-on separately to reduce crosstalk of the two fluorochromes. The green and the red emissions were separated by a dichroic splitter (FT 560) and filtered (515-540-nm bandpass filter for green and >610-nm long pass filter for red emission). A threshold was applied to the images to exclude ˜99% of the signal found in control images.

OC[C@H]1NC[C@H](O)[C@@H](O)[C@H]1O [DGJ, 1-deoxy-galactonojiirimycin, reference compound]
enhancement of correction by rh-alpha-Gal A [1]: largely enhanced

OCCS [2-mercapto-ethanol, reference compound]
stabilization of rhGAA at neutral pH (rhGAA [2]): did not prevent enzyme inactivation

rhGAA: recombinant human GAA (alglucosidase, Myozyme) from Genzyme, used for enzyme replacement therapy
Tm of rhGAA in the absence of chaperone (rhGAA [3]): 50.2±0.1 °C
rhGAA residual activity after 4 hours ([4]; pH 3.0 or 7.0, 37° C., 4 hours): approximately 50%
rhGAA residual activity after 16 hours ([4]; pH 3.0 or 7.0, 37° C., 16 hours): less than 10%
rhGAA stability at pH 5.0 ([4]; pH 5.0, 37° C., up to 24 hours): stable

NCC(=O)O [Gly, reference compound]
stabilization of rhGAA at neutral pH (rhGAA [2]): did not prevent enzyme inactivation

CC(=O)NCC(=O)O [NAG, N-acetyl glycine]
stabilization of rhGAA at neutral pH (rhGAA [2]): remarkable stabilization
effect on the activity of the enzyme (rhGAA) (rhGAA [5]): no effect

O=C(O[C@@H]1Cc2c(O)cc(O)cc2O[C@@H]1c1cc(O)c(O)c(O)c1)c1cc(O)c(O)c(O)c1 [epigallo chatechingallate, epigallo catechingallate, reference compound]
enhancement of rhGAA in PD cultured fibroblasts (rhGAA in PD fibroblasts): did not enhance

CCCCN1C[C@H](O)[C@@H](O)[C@H](O)[C@H]1CO [NB-DNJ, N-butyl-deoxynojirimycin, reference compound]
Tm of rhGAA in the presence of chaperone (rhGAA [3]): 65.9±0.3 °C

N[C@@H](CO)C(=O)O [Ser, reference compound]
stabilization of rhGAA at neutral pH (rhGAA [2]): did not prevent enzyme inactivation

OC[C@H]1NC[C@H](O)[C@@H](O)[C@@H]1O [DNJ, 1-deoxy-nojiirimycin, reference compound]
Tm of rhGAA in the presence of chaperone (rhGAA [3]): 65.9±0.3 °C

CC(=O)N[C@@H](CO)C(=O)O [NAS, N-acetyl serine]
stabilization of rhGAA at neutral pH (rhGAA [2]): remarkable stabilization
effect on the activity of the enzyme (rhGAA) (rhGAA [5]): no effect

Oc1ccc(C=Cc2cc(O)cc(O)c2)cc1 [resveratrol, reference compound]
enhancement of rhGAA in PD cultured fibroblasts (rhGAA in PD fibroblasts): did not enhance

N[C@@H](CS)C(=O)O [Cys, reference compound]
stabilization of rhGAA at neutral pH (rhGAA [2]): did not prevent enzyme inactivation
